The structures appear in SMILES notation. Where two headings read alike, the source gives them in different places.

Assay [1] concerns Influenza B/Florida/4/2006. As to the kind of experiment: microbe, parasite or virus in culture. Conditions: MDCK.
Assay [2] deals with Influenza B/Brisbane/60/2008. Kind of assay: microbe, parasite or virus in culture. As to conditions: MDCK, read-out: EC50, B/Brisbane/60/2008 (Victoria lineage).
The subject of assay [3] is Influenza A/Anhui/1/2013 (H7N9). Kind of assay: microbe, parasite or virus in culture. Conditions: H7N9, MDCK.
Assay [4] has as its system Influenza B/Florida/4/2006.
Assay [5] concerns Influenza B/Brisbane/60/2008.
For assay [6], the system named is Influenza A/Anhui/1/2013 (H7N9).
Assay [7] concerns the target neuraminidase of live influenza A (H1N1) viruses (Influenza A virus, UniProt C3W6G3). As to the kind of experiment: biochemical. Format: biochemical.
The target in assay [8] is neuraminidase of live influenza A (H1N1) viruses (Influenza A virus, UniProt P03468). Kind of assay: biochemical. The assay is classed as biochemical.
Assay [9] addresses neuraminidase of influenza B viruses (Influenza B virus, UniProt A0A1X9RX69). The assay is classed as biochemical.

With `NC(=O)c1ncn([C@@H]2O[C@H](CO)[C@@H](O)[C@H]2O)n1` [ribavirin], the EC50 in [1] was 3250 nM; in assay [1] (read-out: EC50, B/Florida/4/2006 (Yamagata lineage)), 3250 nM; in [2], 3300 nM; in [3] it was 14000 nM; in [3] (read-out: EC50, A/Anhui/1/2013 (H7N9) (zoonotic avian)), 14000 nM.
With `C#CCOCCOCCOCCOCCNC(=O)O[C@H]1[C@@H]([C@@H](NC(C)=O)C(CC)CC)C(NC(=N)N)C[C@@H]1C(=O)O` (stereo in doubt) [Int-5], the EC50 in assay [4] worked out at 4.6 nM; in [5] it was 5.95 nM; in assay [6] it was 21.5 nM.
On to `C#CCOCCOCCOCCOCCN(CCOCCN(C)C(=O)O[C@@H]([C@@H]1OC(C(=O)O)=C[C@H](NC(=N)N)[C@H]1NC(C)=O)[C@H](O)CO)CCOCCN(C)C(=O)O[C@@H]([C@@H]1OC(C(=O)O)=C[C@H](NC(=N)N)[C@H]1NC(C)=O)[C@H](O)CO` [Int-83], for which the IC50 was found to be 28.6 nM in assay [7], 4.23 nM in [8] and 125 nM in [9].

What is called IC50 is the concentration that inhibits the measured activity by half. Read a low IC50 as greater potency.
